This is an account of results in ChEMBL document CHEMBL1151826, “Sulfated steroids: ptilosteroids A-C and ptilosaponosides A and B from the Solomon Islands marine sponge Ptilocaulis spiculifer” (J Nat Prod, 2009).

Structures are written as SMILES.

The subject of the assay is KB. The experiment in a line: Cytotoxicity against human KB cells. It is filed as functional, cell-based.
For `C=C[C@H]1CC[C@H]2[C@@H]3CC[C@H]4[C@@H](O[C@@H]5O[C@H](CO)[C@@H](O)[C@H](OS(=O)(=O)O)[C@H]5O)[C@@H](O)CC[C@]4(CO)[C@H]3CC[C@]12C`, the Activity entry is “Not toxic”.

Take `C=C[C@H]1CC[C@H]2[C@@H]3CC[C@H]4[C@@H](O[C@@H]5O[C@H](CO)[C@@H](O)[C@H](OS(=O)(=O)O)[C@H]5O)[C@@H](OS(=O)(=O)O)CC[C@]4(CO)[C@H]3CC[C@]12C`: the Activity entry was “Not toxic”.

For the compound `C=CC1CC(O)C2C3CCC4C(O)C(O)C(OS(=O)(=O)O)CC4(C)C3CCC12C` (stereo not given), the Activity entry was “Not toxic”.

For the compound `C=CC1C(O)CC2C3CCC4C(O)C(O)C(OS(=O)(=O)O)CC4(C)C3CCC12C` (stereo not given), the Activity result was “Not toxic”.

For `C=CC1C(O)C(O)C2C3CCC4C(O)C(O)C(OS(=O)(=O)O)CC4(C)C3CCC12C` (stereo not given), the Activity entry was “Not toxic”.
